{"source": "patent US6346541B1", "about": "“Cyanoguanidines as cell proliferation inhibitors” (Leo Pharmaceutical Products Ltd. A/S, priority 1997, dated 2002)", "assay_type_in_all_cases": "cell-based", "key": {"[1]": {"tested_on": "human breast cancer (MCF-7) cell line", "assay": "Inhibition of tumour cell proliferation in vitro ([3H]thymidine incorporation), MCF-7", "conditions": "MCF7, MCF-7 cells, cultured 24 hours with compound, DNA synthesis by [3H]thymidine incorporation", "experimental": "(§1) The inhibition of tumour cell proliferation was studied using different types of human cancer cell lines. The cell lines under investigation were small cell lung carcinoma (NYH), non small cell lung carcinoma (NCI-H460), and breast cancer (MCF-7) using the following general procedure:\n(§2) The cells were cultured in vitro for 24 hours in the presence of the compound under investigation. DNA synthesis was measured by incorporation of [3H]thymidine, and the median inhibitory concentrations (IC50) of the compounds were calculated."}, "[2]": {"tested_on": "human small cell lung carcinoma (NYH) cell line", "assay": "Inhibition of tumour cell proliferation in vitro ([3H]thymidine incorporation), NYH", "conditions": "NYH cells, cultured 24 hours with compound, DNA synthesis by [3H]thymidine incorporation", "experimental": "as §1, §2"}, "[3]": {"tested_on": "human non small cell lung cancer (NCI-H460) cell line", "assay": "Inhibition of tumour cell proliferation in vitro ([3H]thymidine incorporation), NCI-H460", "conditions": "NCI-H460 cells, cultured 24 hours with compound, DNA synthesis by [3H]thymidine incorporation", "experimental": "as §1, §2"}}, "data": [{"smiles": "N#CNC(=Nc1ccncc1)NCCCCCCOC(=O)c1ccc(Cl)cc1", "note": "[Example No. 4, N-(6-(4-Chlorobenzoyloxy)hexyl)-N′-cyano-N″-4-pyridylguanidine]", "values": [{"measurement": "IC50", "setting": "[1]", "value": 2.2, "unit": "nM"}, {"measurement": "IC50", "setting": "[2]", "value": 1.7, "unit": "nM"}]}, {"smiles": "N#CNC(=Nc1ccncc1)NCCCCCCNC(=O)c1ccccc1", "note": "[Example No. 2, N-(6-Benzoylaminohexyl)-N′-cyano-N″-4-pyridylguanidine]", "values": [{"measurement": "IC50", "setting": "[1]", "value": 57, "unit": "nM"}, {"measurement": "IC50", "setting": "[2]", "value": 6.2, "unit": "nM"}, {"measurement": "IC50", "setting": "[3]", "value": 66, "unit": "nM"}]}]}
